# Reference: patent US7998989B2, “2-Imino-1,3-thiazoline-based compounds and T-type calcium channel inhibitors containing the same” (Korea Institute of Science and Technology, priority 2007, dated 2011)
# Read-outs that look alike come from different tables or passages of the source.
# Assays:
# [1] = molecular target: T1, α1G T-type calcium channel (Homo sapiens, UniProt O43497); test: Assay for % inhibiting activity against T-type calcium channel using FDSS6000 (fluo-3 calcium imaging, KCl activation); format: cell-based
# T1 construct: host or cells: HEK293
# Procedure: In the present invention, in order to examine an efficient inhibitor against the T-type calcium channel, a primary assay for T-type calcium channel inhibiting activity was conducted by a high-efficient assay using FDSS6000, wherein mammal HEK293 cell lines (originated from human kidney carcinoma cells) that specifically express α1G of the T-type calcium channel was used for primary assay. Through the primary assay, compounds that show meaningful inhibition effects were selected. The selected compounds were used in a second assay for T-type calcium channel inhibiting activity using an electrophysiological whole cell patch clamp method, wherein mammal HEK293 cell lines (originated from human kidney carcinoma cells) that specifically express α1G of the T-type calcium channel was used for the second assay. Mibefradil, which had been developed as a T-type calcium channel inhibitor, was used as a reference.
# At 12-24 hours before being used for this assay, cells of HEK293 cell line (α1G cell line: KCTC 10519BP, Korean Collection for Type Cultures), which stably express α1G T-type calcium channel and Kir2.1, were sub-cultured in a poly-L-lysine treated 96-well plate with the density of 4×10^4 per well using a 96-well cell dispenser (Titertek). On the day of assay, the 96-well plate to which the cells were attached was washed three times with HEPES buffer solution (150 mM of NaCl, 5 mM of KCl, 1 mM of MgCl2, 2 mM of CaCl2, 10 mM of HEPES, 10 mM of glucose; pH 7.4) using a 96-well plate automatic washing device (Bio Tek), then reacted with HEPES buffer solution containing 5 μM fluo-3/AM and 0.001% Pluronic F-127 at room temperature for 1 hour, to label with fluorescent dye, and then further washed two times with HEPES buffer solution.
# Thereafter, at 10 minutes before the measurement using device FDSS6000, washing with HEPES buffer solution containing 10 mM CaCl2 was conducted once more, and the final volume was adjusted to 81 μl. Besides the above 96-well plate containing the cells, two additional drug 96-well plates were provided, wherein the 96-well plates contained an inhibiting drug and KCl (final concentration: 75 mM) for activating the T-type calcium channel, respectively. Since most of cell-based HTS devices are equipped with a liquid application system for injection of drug, but have no liquid sucking system, the inhibiting drug to be tested and KCl were respectively provided at a five-times higher concentration in 10 mM CaCl2 HEPES buffer solution at the amount of 27 μl, diluted by five-times at the final cell plate volume of 135 μl, and then used in this test. The concrete method of measurement using FDSS6000 was as follows. After recording the reference value of 20 seconds, the change of intracellular Ca^2+ concentration that was induced by treatment of the inhibiting drug to be tested for 75 seconds followed by administration of KCl was measured, wherein the percentage (%) inhibition effect of the test drug, through estimating the area of ratio value of 340/380 in the control without treatment of the test drug, was 100%. As a reference drug, 10 μM mibefradil was used.
# For accurate calcium imaging, the light source of 4 xenon lamps in FDSS6000 were radiated to selectively expose the cells to the excitation wavelength (340 nm and 380 nm) by a computer-controlled filter wheel. Data was obtained at intervals of 1.23 seconds. The emitter fluorescence light inflowed through a long-pass filter was obtained as an average 340/380 ratio value for each well in the 96-wells by using a CCD camera and a digital fluorescence analyzer in FDSS6000. All image data and analyses were obtained by using a FDSS6000-exclusive program from Hamamatsu Photonics.
# The obtained results are shown in Table 2 (the results from the compounds according to the examples of the present invention) and Table 3 (the results from the compounds according to the comparative example where R6 is a phenyl group) [FDSS (% inhibition) 10 μM].
# [2] = HEK293, 10 μM, HEK293 cells stably expressing α1G T-type calcium channel and Kir2.1, compounds of the examples, read-out: FDSS (% inhibition)/10uM
# [3] = 10 μM, FDSS (% inhibition), comparative compounds where R6 is a phenyl group, read-out: FDSS
# T1 sequence (O43497 whole entry): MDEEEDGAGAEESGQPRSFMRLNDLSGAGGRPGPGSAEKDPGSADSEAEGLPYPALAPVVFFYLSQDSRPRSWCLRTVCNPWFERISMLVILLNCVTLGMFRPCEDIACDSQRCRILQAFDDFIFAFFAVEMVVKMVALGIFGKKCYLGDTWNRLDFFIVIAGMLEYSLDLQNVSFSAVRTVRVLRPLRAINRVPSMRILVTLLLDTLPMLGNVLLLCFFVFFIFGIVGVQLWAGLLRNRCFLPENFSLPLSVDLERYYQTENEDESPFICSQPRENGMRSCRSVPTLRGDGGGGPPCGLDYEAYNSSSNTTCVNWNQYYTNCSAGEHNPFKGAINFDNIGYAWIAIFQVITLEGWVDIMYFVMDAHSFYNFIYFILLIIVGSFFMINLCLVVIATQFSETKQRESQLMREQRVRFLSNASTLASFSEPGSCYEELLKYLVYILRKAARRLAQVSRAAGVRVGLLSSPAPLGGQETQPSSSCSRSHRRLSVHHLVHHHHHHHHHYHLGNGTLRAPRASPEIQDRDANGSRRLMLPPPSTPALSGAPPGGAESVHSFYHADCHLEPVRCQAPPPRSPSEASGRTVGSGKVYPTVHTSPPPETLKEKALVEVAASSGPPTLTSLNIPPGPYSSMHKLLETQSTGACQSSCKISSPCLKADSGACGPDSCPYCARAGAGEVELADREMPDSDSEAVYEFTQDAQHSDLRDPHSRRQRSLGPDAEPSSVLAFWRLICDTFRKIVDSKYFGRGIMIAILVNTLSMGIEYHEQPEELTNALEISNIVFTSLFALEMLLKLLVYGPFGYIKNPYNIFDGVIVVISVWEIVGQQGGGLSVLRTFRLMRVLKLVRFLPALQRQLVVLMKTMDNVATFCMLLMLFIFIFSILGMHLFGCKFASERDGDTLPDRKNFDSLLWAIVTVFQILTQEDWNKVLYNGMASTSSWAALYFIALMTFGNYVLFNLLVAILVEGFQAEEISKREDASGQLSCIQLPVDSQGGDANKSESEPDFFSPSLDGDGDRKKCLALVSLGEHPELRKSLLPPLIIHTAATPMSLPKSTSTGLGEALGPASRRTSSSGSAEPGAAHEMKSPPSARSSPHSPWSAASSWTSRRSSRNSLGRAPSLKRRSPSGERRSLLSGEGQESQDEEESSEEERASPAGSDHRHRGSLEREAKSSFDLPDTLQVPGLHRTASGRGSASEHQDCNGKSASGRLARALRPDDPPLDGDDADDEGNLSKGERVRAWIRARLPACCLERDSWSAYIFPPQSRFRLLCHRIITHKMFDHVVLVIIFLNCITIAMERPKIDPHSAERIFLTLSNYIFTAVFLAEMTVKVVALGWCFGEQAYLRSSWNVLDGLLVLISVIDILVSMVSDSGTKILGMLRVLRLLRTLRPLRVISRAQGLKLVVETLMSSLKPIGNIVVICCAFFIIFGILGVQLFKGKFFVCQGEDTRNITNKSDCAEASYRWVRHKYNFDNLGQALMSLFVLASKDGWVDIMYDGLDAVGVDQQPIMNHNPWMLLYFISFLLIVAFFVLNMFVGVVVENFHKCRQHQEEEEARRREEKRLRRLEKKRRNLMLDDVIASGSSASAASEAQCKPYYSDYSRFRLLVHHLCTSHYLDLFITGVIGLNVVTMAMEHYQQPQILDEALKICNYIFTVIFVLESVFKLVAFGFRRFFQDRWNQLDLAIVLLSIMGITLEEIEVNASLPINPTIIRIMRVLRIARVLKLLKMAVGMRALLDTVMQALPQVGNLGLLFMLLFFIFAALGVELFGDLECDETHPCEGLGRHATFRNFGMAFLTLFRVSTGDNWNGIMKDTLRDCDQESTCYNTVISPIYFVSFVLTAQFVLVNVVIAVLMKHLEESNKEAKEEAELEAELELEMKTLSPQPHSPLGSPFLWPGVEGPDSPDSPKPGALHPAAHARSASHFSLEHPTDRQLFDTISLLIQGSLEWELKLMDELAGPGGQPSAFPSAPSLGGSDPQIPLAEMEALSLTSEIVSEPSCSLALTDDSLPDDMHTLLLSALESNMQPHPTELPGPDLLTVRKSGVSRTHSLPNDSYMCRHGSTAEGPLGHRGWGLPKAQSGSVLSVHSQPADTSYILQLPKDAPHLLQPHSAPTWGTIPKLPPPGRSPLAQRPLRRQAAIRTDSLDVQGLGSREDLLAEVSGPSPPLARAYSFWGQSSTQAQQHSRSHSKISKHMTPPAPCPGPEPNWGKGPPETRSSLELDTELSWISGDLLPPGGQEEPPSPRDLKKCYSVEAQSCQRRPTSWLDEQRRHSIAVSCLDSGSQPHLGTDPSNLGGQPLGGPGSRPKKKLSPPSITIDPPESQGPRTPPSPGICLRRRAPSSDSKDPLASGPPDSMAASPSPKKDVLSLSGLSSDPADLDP
melting point [°C],"inhibition at 10 µM [1, 2] [%]","inhibition at 10 µM [1, 3] [%]","FDSS (% inhibition)/10uM ([1]; 10 μM, HEK293 cells stably expressing α1G T-type calcium channel and Kir2.1, compounds of the examples) [%]",SMILES
257 to 259,35.2,–,–,"CC1SC(=NC2CCCCC2)N(C)C1CC(=O)Nc1cccc(F)c1.Cl (stereo not drawn) [KHG24636, (2-cyclohexylimino-3,5-dimethyl-1,3-thiazolidine-4-yl)-N-(3-fluorophenyl)-acetamide hydrochloride]"
229 to 231,–,20.5,–,"CN1C(=Nc2cccc(F)c2)SCC1CC(=O)Nc1ccc(Cl)cc1F.Cl (stereo not drawn) [KHG32076, [2-(3-fluorophenylimino)-3-methyl-1,3-thiazolidine-4-yl]-N-(4-chloro-2-fluorophenyl)-acetamide hydrochloride]"
109.2,40.4,–,–,"CN1C(=NC2CCCCCC2)SCC1C(=O)Nc1ccc(Br)cc1 (stereo not drawn) [KHG24633, (2-cycloheptylimino-3-methyl-1,3-thiazolidine-4-yl)-N-(4-bromophenyl)-carboxamide]"
217 to 219,58.1,–,–,"CC1SC(=NC2CCCCCC2)N(C)C1CC(=O)Nc1cc(C(F)(F)F)cc(C(F)(F)F)c1.Cl (stereo not drawn) [KHG24646, (2-cycloheptylimino-3,5-dimethyl-1,3-thiazolidine-4-yl)-N-(3,5-ditrifluoromethylphenyl)-acetamide hydrochloride]"
236.9,46.7,–,–,"Br.CN1C(=NC2CCCCCC2)SCC1C(=O)NCc1ccccc1C(F)(F)F (stereo not drawn) [KHG24670, (2-cycloheptylimino-3-methyl-1,3-thiazolidine-4-yl)-N-(2-trifluoromethylbenzyl)-carboxamide hydrobromide]"
228,53.8,–,–,"CCCN1C(=NC23CC4CC(CC(C4)C2)C3)SCC1CC(=O)Nc1ccc(Br)cc1.Cl (stereo not drawn) [KHG24812, [2-(1-adamantylimino)-3-n-propyl-1,3-thiazolidine-4-yl]-N-(4-bromophenyl)-acetamide hydrochloride]"
158,62.9,–,–,"CCCCN1C(=NC23CC4CC(CC(C4)C2)C3)SCC1CC(=O)Nc1ccc(Cl)cc1.Cl (stereo not drawn) [KHG24775, [2-(1-adamantylimino)-3-(n-butyl)-1,3-thiazolidine-4-yl]-N-(4-chlorophenyl)-acetamide hydrochloride]"
233,35.4,–,–,"CC(C)N1C(=NC23CC4CC(CC(C4)C2)C3)SCC1CC(=O)Nc1cc(C(F)(F)F)cc(C(F)(F)F)c1.Cl (stereo not drawn) [KHG24828, [2-(1-adamantylimino)-3-isopropyl-1,3-thiazolidine-4-yl]-N-(3,5-ditrifluoromethylphenyl)-acetamide hydrochloride]"

# Continued, molecule first:
SMILES,melting point [°C],"inhibition at 10 µM [1, 2] [%]","inhibition at 10 µM [1, 3] [%]","FDSS (% inhibition)/10uM ([1]; 10 μM, HEK293 cells stably expressing α1G T-type calcium channel and Kir2.1, compounds of the examples) [%]"
"CN1C(=NCC2CCCCC2)SCC1CC(=O)Nc1cc([N+](=O)[O-])ccc1F.Cl (stereo not drawn) [KHG24234, (2-cyclohexylmethylimino-3-methyl-1,3-thiazolidine-4-yl)-N-(2-fluoro-5-nitrophenyl)-acetamide hydrochloride]",225,45.4,–,–
"CC1SC(=NC2CCCCC2)N(C)C1CC(=O)Nc1ccc(F)cc1.Cl (stereo not drawn) [KHG24525, (2-cyclohexylimino-3,5-dimethyl-1,3-thiazolidine-4-yl)-N-(4-fluorophenyl)-acetamide hydrochloride]",267 to 269,31.5,–,–
"CCCCc1ccc(NC(=O)CC2CSC(=NC3CCCC3)N2C)cc1.Cl (stereo not drawn) [KHG24116, (2-cyclopentylimino-3-methyl-1,3-thiazolidine-4-yl)-N-(4-n-butylphenyl)-acetamide hydrochloride]",216 to 217.5,65.4,–,–
"CN1C(=NCCc2ccccc2)SCC1CC(=O)Nc1cc(C(F)(F)F)cc(C(F)(F)F)c1.Cl (stereo not drawn) [KHG24216, (2-phenethylimino-3-methyl-1,3-thiazolidine-4-yl)-N-(3,5-ditrifluoromethylphenyl)-acetamide hydrochloride]",221.3,36,–,–
"Cc1ccc(NC(=O)C2CSC(=NC3CCCCCC3)N2C)cc1.Cl (stereo not drawn) [KHG24629, (2-cycloheptylimino-3-methyl-1,3-thiazolidine-4-yl)-N-(4-methylphenyl)-carboxamide hydrochloride]",202.1,–,–,47.03
"CC(C)c1cccc(NC(=O)CC2CSC(=NC3CCCCC3)N2C)c1.Cl (stereo not drawn) [KHG24528, (2-cyclohexylimino-3-methyl-1,3-thiazolidine-4-yl)-N-(3-isopropylphenyl)-acetamide hydrochloride]",160,54.2,–,–
"CCCCN1C(=NC2CCCCC2)SCC1CC(=O)Nc1ccc(F)cc1.Cl (stereo not drawn) [KHG24284, [2-cyclohexylimino-3-(n-butyl)-1,3-thiazolidine-4-yl]-N-(4-fluorophenyl)-acetamide hydrochloride]",203.5,44.6,–,–
"CN1C(=NC2CCCCC2)SCC1CC(=O)Nc1cccc(Cl)c1Cl.Cl (stereo not drawn) [KHG24530, (2-cyclohexylimino-3-methyl-1,3-thiazolidine-4-yl)-N-(2,3-dichlorophenyl)-acetamide hydrochloride]",215,38.5,–,–
"CN1C(=Nc2ccc(OC(F)(F)F)cc2)SCC1CC(=O)Nc1ccc(Cl)cc1F.Cl (stereo not drawn) [KHG23070, [2-(4-trifluoromethoxyphenylimino)-3-methyl-1,3-thiazolidine-4-yl]-N-(4-chloro-2-fluorophenyl)-acetamide hydrochloride]",236 to 237,–,7.44,–
"Cc1cc(NC(=O)CC2CSC(=NC3CCCCC3)N2C)ccc1Br.Cl (stereo not drawn) [KHG24111, (2-cyclohexylimino-3-methyl-1,3-thiazolidine-4-yl)-N-(4-bromo-3-methylphenyl)-acetamide hydrochloride]",237 to 238,67.7,–,–
"CCCCc1ccc(N=C2SCC(CC(=O)Nc3ccc(Cl)cc3F)N2C)cc1.Cl (stereo not drawn) [KHG23066, [2-(4-n-butylphenylimino)-3-methyl-1,3-thiazolidine-4-yl]-N-(4-chloro-2-fluorophenyl)-acetamide hydrochloride]",223 to 224,–,1.3,–
"CCc1ccc(NC(=O)CC2C(C)SC(=NC3CCCCCC3)N2C)cc1.Cl (stereo not drawn) [KHG24517, (2-cycloheptylimino-3,5-dimethyl-1,3-thiazolidine-4-yl)-N-(4-ethylphenyl)-acetamide hydrochloride]",262 to 264,49.6,–,–
"CCc1ccc(N=C2SCC(CC(=O)Nc3ccc(Cl)cc3F)N2C)cc1.Cl (stereo not drawn) [KHG23072, [2-(4-ethylphenylimino)-3-methyl-1,3-thiazolidine-4-yl]-N-(4-chloro-2-fluorophenyl)-acetamide hydrochloride]",242,–,29.4,–
"CN1C(=NC2CCCC2)SCC1CC(=O)Nc1ccc(Br)cc1.Cl (stereo not drawn) [KHG24098, (2-cyclopentylimino-3-methyl-1,3-thiazolidine-4-yl)-N-(4-bromophenyl)-acetamide hydrochloride]",228 to 228.5,50.5,–,–
"CC1SC(=NC2CCCCCC2)N(C)C1CC(=O)Nc1ccc(Br)cc1 (stereo not drawn) [KHG24486, (2-cycloheptylimino-3,5-dimethyl-1,3-thiazolidine-4-yl)-N-(4-bromophenyl)-acetamide]",253 to 254,55.8,–,–
"CN1C(=NC2CCCC2)SCC1CC(=O)Nc1ccc(Oc2ccccc2)cc1.Cl (stereo not drawn) [KHG24099, (2-cyclopentylimino-3-methyl-1,3-thiazolidine-4-yl)-N-(4-phenoxyphenyl)-acetamide hydrochloride]",230 to 230.5,58.2,–,–
